Data on twelve sequences can be found in patent publication US10138271B2, “Native and agonist CTL epitopes of the MUC1 tumor antigen” (The United States of America, as represented by the …, priority 2012, dated 2018).

Assay [1] concerns MUC1-C-specific T-cell lines. Description: IFN-γ release by MUC1-C-specific T-cell lines stimulated with peptide-pulsed autologous B cells (ELISA). The class given is cell-based, human. The settings on record: for IFN-γ: T-cell line generated with and stimulated by the same peptide, APC:T 2:1, 24 hour supernatant; for IFN-γ production by agonist peptide-specific T-cell line, agonist versus native peptide: at each peptide concentration, FIG. 1A-C. As to the method:
Supernatants of T cells stimulated for 24 h with peptide-pulsed autologous DCs or autologous EBV-transformed B cells in IL-2-free medium at various peptide concentrations were screened for secretion of IFN-γ by ELISA kit (BioSource International, Camarillo, Calif.). Results were expressed in pg/mL.
To evaluate the specificity of these T-cell lines, an IFN-γ release assay was performed using irradiated autologous B cells pulsed with the corresponding peptide. T cells were stimulated with irradiated autologous B cells pulsed with corresponding peptide at an APC:T cell ratio of 2:1. T cells were used at a concentration of 5×10^5/mL. 24 hour culture supernatants were collected and screened for secretion of IFN-γ. T-1-P1172(1Y), T-1-P1177(10V), and T-2-P1240(1Y) cell lines produced higher levels of IFN-γ compared to T-cell lines generated using corresponding native peptides (Table 2).
Studies were then conducted to compare the ability of the native peptides and the agonist peptides, at various concentrations, to activate the agonist peptide-specific T cells.
An additional T-cell line was then established from the PBMCs of another patient (patient 3) with colon cancer from the same clinical trial described above, using P1177 and P1177(10V), designated T-3-P1177 and T-3-P1177(10V), respectively.

The test system of assay [2] is T-VNTR-5 T cell line. Description: IFN-γ production by VNTR-5-specific T cell line stimulated with agonist or native peptide. In kind it is cell-based, human. The settings on record: APC:T 3:1, 24 hours. As for the experimental part:
(§1) T-VNTR-3 (VNTR-3 agonist peptide-specific T cell line) and T-VNTR-5 (VNTR-5 agonist peptide-specific T cell line) were separately cultured at a concentration of 1×10^5 cells/mL. The ratio of APC:T cells was 3:1. The agonist or native peptides were used at various concentrations (see Tables 14 and 15). The supernatents were collected after 24 hours, and the amount of IFN-γ was determined. The VNTR-3- and VNTR-5-specific T cell lines stimulated with agonist peptides produced higher levels of IFN-γ as compared to stimulation with native peptides (see Tables 14 and 15).

Assay [3] has as its target T1, HLA-A2 molecules (Homo sapiens, UniProt P04439, D140Y/D185E/D98H/E176V/E277Q/G131W/G231S/I119V/I121R/I166T/I218V/L300P/L318F/N151K/N90K/P208A/P217A/Q86G/Q94H/R138H/R169H/T345S).
T1 construct: endogenous in cells; host or cells: T2 / T2A2 cells (174CEM-T2, transport deletion mutant)
Description: Peptide binding to HLA-A2: upregulation of HLA-A2 expression on T2/T2A2 cells by flow cytometry. The settings on record: for T2 Binding (mean fluorescence intensity): peptide 12.5 μg/mL; for T2A2 Binding (mean fluorescence intensity): peptide 25 μg/mL. As to the method: Single-color flow cytometric analysis has been previously described in Guadagni et al., Cancer Res., 50: 6248-6255 (1990). Briefly, cells were washed 3 times with cold Ca2^+- and Mg2^+-free Dulbecco's phosphate-buffered saline (PBS), and then stained for 1 h at 4° C. using FITC-conjugated monoclonal antibodies anti-HLA-A2,28 (One Lambda, Inc., Canoga Park, Calif.), anti-CD3, anti-CD4, and anti-CD8 (BD Biosciences, San Jose, Calif.). Mouse IgG2a, k FITC (BD Biosciences) was used as isotype control. The cells were then washed 3 times with cold Ca2^+- and Mg2^+-free PBS, resuspended in the same buffer, and immediately analyzed using a FACScan (Becton Dickinson, Franklin Lakes, N.J.) and CellQuest software (BD Biosciences). Results were generated from data gathered from 10,000 live cells and expressed as percent-positive cells and mean fluorescence intensity (MFI). The MFI value was collected in log scale and used to express levels of fluorescence determined by measuring the average for all cells in the fluorescence dot plot.

Assay [4] relates to T-VNTR-3 T cell line. Description: IFN-γ production by VNTR-3-specific T cell line stimulated with agonist or native peptide. In kind it is cell-based, human. The settings on record: APC:T 3:1, 24 hours. As to the method:
as §1

Assay [5] concerns the target T1, HLA-A2 molecules. Description: Stability of peptide/HLA-A2 complexes (percentage of remaining complexes over time). In kind it is binding. The settings on record: time points 0, 2, 4, 6, 8, 10 h. As to the method:
The stability of the peptide/HLA-A2 complexes of the analogs and native peptides were analyzed by determining the percentage of the remaining complexes on HLA-A2 molecules at different time points (0, 2, 4, 6, 8, and 10 h).
The stability of the peptide/HLA-A2 complexes of the analogs and native peptides was analyzed by determining the percentage of the remaining complexes on HLA-A2 molecules at different time points (0, 2, 4, 6, 8, and 10 h).

Bounds are passed on as bounds.

ALAIVYLIAL [Peptide P1172]: in assay [1], the IFN-γ stood at 158.3 pg/mL.

Take APDTRPAPG [VNTR-4]: the IFN-γ was found to be 19.8 pg/mL in assay [2] (peptide 1.56 μg/mL); 53.2 pg/mL in assay [2] (peptide 3.13 μg/mL); 63.1 pg/mL in assay [2] (peptide 6.25 μg/mL); 109.3 pg/mL in assay [2] (peptide 12.5 μg/mL); 117.9 pg/mL in assay [2] (peptide 25 μg/mL).

On to GLFDEYLEMV [NGEP (P703)], for which, in assay [3], the “T2 Binding (mean fluorescence intensity)” value stood at 481.93 MFI and the “T2A2 Binding (mean fluorescence intensity)” value is 485.3 MFI.

Regarding HLFGYSWYK [CAP-7], in assay [3], the “T2 Binding (mean fluorescence intensity)” value is given as 109.1 MFI and the “T2A2 Binding (mean fluorescence intensity)” value was 83.8 MFI.

With SLSYTNPAV [Peptide P1240], the IFN-γ in assay [1] stood at 437.3 pg/mL.

As for STAPPAHGV [VNTR-2], the IFN-γ in assay [4] (peptide 1.56 μg/mL) was found to be 29.0 pg/mL; in assay [4] (peptide 3.13 μg/mL), 75.8 pg/mL; in assay [4] (peptide 6.25 μg/mL), 127.0 pg/mL; in assay [4] (peptide 12.5 μg/mL), 203.0 pg/mL; in assay [4] (peptide 25 μg/mL), 261.0 pg/mL.

For the sequence YLAIVYLIAL [P1172(1Y)], in assay [5], the “Stability of peptide/HLA-A2 complexes, analog versus native peptide” value is “No differences”. In addition, in assay [1], the IFN-γ is reported as 605.0 pg/mL and the “IFN-γ production by agonist peptide-specific T-cell line, agonist versus native peptide” value (“IFN-γ production … agonist versus native peptide” for short) was “greatest level of IFN-γ production”.

As to YLAPPAHGV [VNTR-3], in assay [5], the “Stability of peptide/HLA-A2 complexes, analog versus native peptide” value is listed as “greater avidity for class I molecules than the native peptides”. Moreover, the IFN-γ came to 304.9 pg/mL in assay [4] (peptide 1.56 μg/mL); 457.6 pg/mL in assay [4] (peptide 3.13 μg/mL); 685.3 pg/mL in assay [4] (peptide 6.25 μg/mL); 766.1 pg/mL in assay [4] (peptide 12.5 μg/mL); 771.5 pg/mL in assay [4] (peptide 25 μg/mL).

Turning to YLDTRPAPV [VNTR-5], in assay [5], the “Stability of peptide/HLA-A2 complexes, analog versus native peptide” value was “greater avidity for class I molecules than the native peptides”. Besides, the IFN-γ is reported as 205.1 pg/mL in assay [2] (peptide 1.56 μg/mL); 322.0 pg/mL in assay [2] (peptide 3.13 μg/mL); 452.9 pg/mL in assay [2] (peptide 6.25 μg/mL); 496.2 pg/mL in assay [2] (peptide 12.5 μg/mL); 543.7 pg/mL in assay [2] (peptide 25 μg/mL).

In assay [1], YLIALAVCQC [Peptide P1177] came in with an IFN-γ of 666.4 pg/mL.

In the case of YLIALAVCQV [P1177(10V)], the “Stability of peptide/HLA-A2 complexes, analog versus native peptide” value in assay [5] is on record as “greater avidity for class I molecules than the native peptide P1177 at each time point”. Moreover, in assay [1], the IFN-γ is recorded as >1,000 pg/mL and the “IFN-γ production … agonist versus native peptide” value is “greatest level of IFN-γ production”.

For the sequence YLSYTNPAV [P1240(1Y)], in assay [5], the “Stability of peptide/HLA-A2 complexes, analog versus native peptide” value is given as “No differences”. For the same sequence, in assay [1], the IFN-γ is recorded as >1,000 pg/mL and the “IFN-γ production … agonist versus native peptide” value was “greatest level of IFN-γ production”.
